Article PMC5590679 (Journal of medicinal chemistry, 2017)

Test system: Mtb BioA overexpression strain (BioA-OE)
Experiment: microbe, parasite or virus in culture
Format: cell-based, Mycobacterium tuberculosis

Compound	MIC (Mycobacterium tuberculosis, read-out: MIC that results in 90% inhibition, BioA-OE) [µM]	MIC50 BioA-OE (MIC that results in 50% inhibition, […]) [µM]
CC(=O)c1ccc(N2CCN(C(=O)c3ccc4c(c3)OCO4)CC2)cc1 [Compound 6, 1-(4-(4-(Benzo[d][1,3]dioxole-5-carbonyl)piperazin-1-yl)phenyl)-ethanone]	> 50	–
(3-Chlorophenyl)(4-(5-methoxypyridin-2-yl)piperazin-1-yl)-methanone [Compound 22]	–	>50
